Consider one compound from ChEMBL document CHEMBL3509396, “FDA drug approval package for Aspirin (clinical pharmacology review, Ref:ID 3227827)”.

A short description of data set [1]: (§1) Mean Cmax of acetylsalicylic acid concentration after administration of Genuine Bayer Aspirin Tablet at fasting condition in human. Type of data set: ADME, organism-based. Set-up: dietary status Fasting, dose 325 mg, dosed compound id 2.46814e+06, dosed compound name Acetylsalicylic acid, regimen Single, route oral, sampling time 24 h, study doses 325/650 mg. The conditions noted are these: plasma, po, 325 mg.

The nature of data set [2]: (§2) Mean AUC0-t of acetylsalicylic acid concentration after administration of Genuine Bayer Aspirin Tablet at fasting condition in human. The class given is ADME, organism-based. On the set-up: dietary status Fasting, dose 325 mg, dosed compound id 2.46814e+06, dosed compound name Acetylsalicylic acid, regimen Single, route oral, sampling time 24 h, study doses 325/650 mg. The conditions noted are these: plasma, po, 325 mg.

Data set [3] is described as follows: (§3) Mean AUCinfinity of acetylsalicylic acid concentration after administration of Genuine Bayer Aspirin Tablet at fasting condition in human. The conditions noted are these: plasma, po, 325 mg, read-out: AUCinfinity (converted). Type of data set: ADME, organism-based. Set-up: time infinity, dietary status Fasting, dose 325 mg, dosed compound id 2.46814e+06, dosed compound name Acetylsalicylic acid, regimen Single, route oral, sampling time 24 h, study doses 325/650 mg.

Data set [4] is described as follows: (§4) Mean terminal elimination half-life of acetylsalicylic acid concentration after administration of Genuine Bayer Aspirin Tablet at fasting condition in human. Set-up: dietary status Fasting, dose 325 mg, dosed compound id 2.46814e+06, dosed compound name Acetylsalicylic acid, regimen Single, route oral, sampling time 24 h, study doses 325/650 mg. The settings on record: plasma, po, 325 mg. Type of data set: ADME, organism-based.

A short description of data set [5]: (§5) Mean Tlag of acetylsalicylic acid concentration after administration of Genuine Bayer Aspirin Tablet at fasting condition in human. Type of data set: ADME, organism-based, Plasma. On the set-up: dietary status Fasting, dose 325 mg, dosed compound id 2.46814e+06, dosed compound name Acetylsalicylic acid, regimen Single, route oral, sampling time 24 h, study doses 325/650 mg. The conditions noted are these: in vivo, po.

A short description of data set [6]: (§6) Mean Tmax of acetylsalicylic acid concentration after administration of Genuine Bayer Aspirin Tablet at fasting condition in human. Type of data set: ADME, organism-based. On the set-up: dietary status Fasting, dose 325 mg, dosed compound id 2.46814e+06, dosed compound name Acetylsalicylic acid, regimen Single, route oral, sampling time 24 h, study doses 325/650 mg. The conditions noted are these: plasma, po, 325 mg.

Data set [7] is described as follows: as §1. The settings on record: plasma, po, 650 mg. On the set-up: dietary status Fasting, dose 650 mg, dosed compound id 2.46814e+06, dosed compound name Acetylsalicylic acid, regimen Single, route oral, sampling time 24 h, study doses 325/650 mg. The class given is ADME, organism-based.
Data set [8] can be described thus: as §2. Type of data set: ADME, organism-based. Set-up: dietary status Fasting, dose 650 mg, dosed compound id 2.46814e+06, dosed compound name Acetylsalicylic acid, regimen Single, route oral, sampling time 24 h, study doses 325/650 mg. The settings on record: plasma, po, 650 mg.
Data set [9] is described as follows: as §3. Type of data set: ADME, organism-based. Set-up: time infinity, dietary status Fasting, dose 650 mg, dosed compound id 2.46814e+06, dosed compound name Acetylsalicylic acid, regimen Single, route oral, sampling time 24 h, study doses 325/650 mg. The conditions noted are these: plasma, po, 650 mg, read-out: AUCinfinity (converted).
Data set [10] is described as follows: as §4. The class given is ADME, organism-based. Set-up: dietary status Fasting, dose 650 mg, dosed compound id 2.46814e+06, dosed compound name Acetylsalicylic acid, regimen Single, route oral, sampling time 24 h, study doses 325/650 mg. The conditions noted are these: plasma, po, 650 mg.
Data set [11] can be described thus: as §5. Type of data set: ADME, organism-based, Plasma. Set-up: dietary status Fasting, dose 650 mg, dosed compound id 2.46814e+06, dosed compound name Acetylsalicylic acid, regimen Single, route oral, sampling time 24 h, study doses 325/650 mg. The conditions noted are these: in vivo, po.
The nature of data set [12]: as §6. The class given is ADME, organism-based. On the set-up: dietary status Fasting, dose 650 mg, dosed compound id 2.46814e+06, dosed compound name Acetylsalicylic acid, regimen Single, route oral, sampling time 24 h, study doses 325/650 mg. The settings on record: plasma, po, 650 mg.

Regarding `CC(=O)Oc1ccccc1C(=O)O` [ASPIRIN], the Cmax (usually the maximum level reached in the sampled fluid or tissue) was 2590 ng/mL in [1] and 5100 ng/mL in data set [7]. Further, the values for the AUC(0-t) in data set [2] and in data set [8] were 3520 ng·h/mL and 6880 ng·h/mL, respectively. The figures for the AUC(0-inf) in data set [3] and in data set [9] were 3830 ng·h/mL and 7280 ng·h/mL, respectively. For the same compound, the results for the half-life in [4] and in data set [10] were 31 min and 55 min, respectively. Also, the figures for the Tlag in data set [5] and in [11] were 2 min and 1 min, respectively. The Tmax (commonly the time from dosing to the highest level) in data set [6] is 68 min; in data set [12], 40 min.
